Measurements from patent publication US20240016781A1, “TREATMENT OF KRAS MUTANT CANCERS” (MEI Pharma, Inc., priority 2020, published 2024).
pEC50, pIC50: −log10 of the molar value. Where two headings read alike, the source gives them in different places. Each block holds one compound with its values, some of them ahead of it.

How the values were obtained:
Assay in all cases: 72-hour CellTiter-Glo 2.0 growth inhibition screen (single agent, 9x9 combination dose matrix);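 as to Best CI Level: inhibition effect level at which the best CI was calculated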
Type in all cases: cell-based
Gp2D = test system: Gp2D;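 as to Best CI Level: inhibition effect level at which the best CI was calculated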
NCI-H23 = test system: NCI-H23;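 as to Best CI Level: inhibition effect level at which the best CI was calculated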
SW48 KRAS (G12D/+) = test system: SW48 KRAS (G12D/+);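 as to Best CI Level: inhibition effect level at which the best CI was calculated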
HCC1171 = test system: HCC1171;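 as to Best CI Level: inhibition effect level at which the best CI was calculated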
TOV-21G = test system: TOV-21G;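 as to Best CI Level: inhibition effect level at which the best CI was calculated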
[1] = Gp2D (KRAS G12D), enhancer + MEI-522 (Voruciclib), 72 h;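 as to Best CI Level: inhibition effect level at which the best CI was calculated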
[2] = Gp2D, Colorectal, Additional Single Agent Responses (inhibition, % I), 72 h
[3] = Gp2D, Colorectal, growth inhibition (GI), AUC, single agent, 72 h
[4] = enhancer combined with MEI-522 (Voruciclib), Gp2D (Colorectal), 72 hours, inhibition data
[5] = Homo sapiens, NCI-H23, NCl-H23, Lung, Additional Single Agent Responses (inhibition, % I), 72 h
[6] = NCl-H23 (KRAS G12C), enhancer + MEI-522 (Voruciclib), 72 h
[7] = NCl-H23, Lung, Additional Single Agent Responses (inhibition, % I), 72 h
[8] = NCl-H23, Lung, growth inhibition (GI), AUC, single agent, 72 h
[9] = enhancer combined with MEI-522 (Voruciclib), NCl-H23 (Lung), 72 hours, inhibition data
[10] = SW48 KRAS (G12D/+), Colorectal, Additional Single Agent Responses (inhibition, % I), 72 h
[11] = SW48 KRAS (G12D/+), Colorectal, growth inhibition (GI), AUC, single agent, 72 h
[12] = SW48 KRAS (G12D/+), enhancer + MEI-522 (Voruciclib), 72 h
[13] = enhancer combined with MEI-522 (Voruciclib), SW48 KRAS (G12D/+) (Colorectal), 72 hours, inhibition data
[14] = HCC1171 (KRAS G12C), enhancer + MEI-522 (Voruciclib), 72 h;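 as to Best CI Level: inhibition effect level at which the best CI was calculated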
[15] = HCC1171, Lung, Additional Single Agent Responses (inhibition, % I), 72 h
[16] = HCC1171, Lung, growth inhibition (GI) curve, single agent, 72 h
[17] = HCC1171, Lung, growth inhibition (GI), AUC, single agent, 72 h
[18] = enhancer combined with MEI-522 (Voruciclib), HCC1171 (Lung), 72 hours, inhibition data
[19] = TOV-21G (KRAS G13C), enhancer + MEI-522 (Voruciclib), 72 h;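 as to Best CI Level: inhibition effect level at which the best CI was calculated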
[20] = TOV-21G, Ovary, Additional Single Agent Responses (inhibition, % I), 72 h
[21] = TOV-21G, Ovary, growth inhibition (GI), AUC, single agent, 72 h
[22] = enhancer combined with MEI-522 (Voruciclib), TOV-21G (Ovary), 72 hours, inhibition data
[23] = Gp2D, Colorectal, growth inhibition (GI) curve, single agent, 72 h
[24] = NCl-H23, Lung, growth inhibition (GI) curve, single agent, 72 h
[25] = TOV-21G, Ovary, growth inhibition (GI) curve, single agent, 72 h

SMILES: C=CC(=O)N1CCN(c2nc(=O)n(-c3c(C)ccnc3C(C)C)c3nc(-c4c(O)cccc4F)c(F)cc23)[C@@H](C)C1 [AMG510]
pEC50 (Gp2D; GP2d, 72 h, Colorectal, Additional Single Agent Responses (inhibition, % I)): 5.59
pEC50 (Gp2D; GP2d, 72 h, Colorectal, growth inhibition (GI) curve, single agent): 5.59
Best CI (Gp2D; [1]): 0.47
Bliss Volume (Gp2D; [1]): 1.60
HSA volume (Gp2D; [1]): −1.47
Loewe Volume (Gp2D; [1]): 1.40
Synergy Score (Gp2D; [1]): 2.14
Response Area (Gp2D; [2]): 0.42
Emax (Gp2D; Gp2D, Colorectal, Additional Single Agent Responses, 72 h, read-out: Max Response (% I)): 13%
Response Area (Gp2D; [3]): 0.55
Emax (Gp2D; Gp2D, Colorectal, growth inhibition (GI), single agent, 72 h, read-out: Max Response (% GI)): 18%
Best CI (Gp2D; [4]): 0.90
Best CI Level (Gp2D; [4]): 20
Bliss Volume (Gp2D; [4]): 0.54
HSA volume (Gp2D; [4]): −1.21
Loewe Volume (Gp2D; [4]): 0.47
Synergy Score (Gp2D; [4]): 0.43
pEC50 (NCI-H23; [5]): 8.17
pIC50 (NCI-H23; [5]): 6.80
Emax (NCI-H23; Homo sapiens, NCI-H23, NCl-H23, Lung, Additional Single Agent Responses, 72 h, read-out: Max Response (% I)): 56%
GI50 (NCI-H23; Homo sapiens, NCI-H23, NCl-H23, Lung, growth inhibition (GI) curve, single agent, 72 h): 23.2 nM
Emax (NCI-H23; Homo sapiens, NCI-H23, NCl-H23, Lung, growth inhibition (GI), single agent, 72 h, read-out: Max Response (% GI)): 71%
Best CI (NCI-H23; [6]): 0.76
Bliss Volume (NCI-H23; [6]): 8.97
HSA volume (NCI-H23; [6]): 6.92
Loewe Volume (NCI-H23; [6]): 6.28
Synergy Score (NCI-H23; [6]): 8.27
Response Area (NCI-H23; [7]): 2.82
Response Area (NCI-H23; [8]): 3.60
Best CI (NCI-H23; [9]): 0.53
Best CI Level (NCI-H23; [9]): 80
Bliss Volume (NCI-H23; [9]): 1.69
HSA volume (NCI-H23; [9]): 4.54
Loewe Volume (NCI-H23; [9]): 3.98
Synergy Score (NCI-H23; [9]): 3.46
Bliss Volume (SW48 KRAS (G12D/+)): −0.98
pEC50 (SW48 KRAS (G12D/+); Homo sapiens, SW48, 72 h): 5.52
Emax (SW48 KRAS (G12D/+); Homo sapiens, SW48, 72 h, read-out: Max Response (% GI)): 15%
Emax (SW48 KRAS (G12D/+); Homo sapiens, SW48, 72 h, read-out: Max Response (% I)): 11%
Response Area (SW48 KRAS (G12D/+); [10]): 0.00
Response Area (SW48 KRAS (G12D/+); [11]): 0.00
Best CI (SW48 KRAS (G12D/+); [12]): 0.55
Bliss Volume (SW48 KRAS (G12D/+); [12]): 0.17
Loewe Volume (SW48 KRAS (G12D/+); [12]): 0.13
Synergy Score (SW48 KRAS (G12D/+); [12]): 2.74
Best CI (SW48 KRAS (G12D/+); [13]): 1.38
Loewe Volume (SW48 KRAS (G12D/+); [13]): −0.76
Synergy Score (SW48 KRAS (G12D/+); [13]): 0.86
Best CI Level (SW48 KRAS (G12D/+); enhancer combined with MEI-522 (Voruciclib), SW48 KRAS (G12D/+) (Colorectal), 72 hours, inhibition data, unit assumed): 20%
Best CI (HCC1171; [14]): 0.26
Bliss Volume (HCC1171; [14]): 3.26
HSA volume (HCC1171; [14]): 4.61
Loewe Volume (HCC1171; [14]): 6.02
Synergy Score (HCC1171; [14]): 7.42
pEC50 (HCC1171; [15]): 8.55
Response Area (HCC1171; [15]): 1.99
Emax (HCC1171; HCC1171, Lung, Additional Single Agent Responses, 72 h, read-out: Max Response (% I)): 48%
GI50 (HCC1171; [16]): 5.5 nM
Response Area (HCC1171; [17]): 3.50
Emax (HCC1171; HCC1171, Lung, growth inhibition (GI), single agent, 72 h, read-out: Max Response (% GI)): 85%
Best CI (HCC1171; [18]): 0.22
Bliss Volume (HCC1171; [18]): −0.99
HSA volume (HCC1171; [18]): 2.26
Loewe Volume (HCC1171; [18]): 3.06
Synergy Score (HCC1171; [18]): 2.15
Best CI Level (HCC1171; enhancer combined with MEI-522 (Voruciclib), HCC1171 (Lung), 72 hours, inhibition data, unit assumed): 50%
pEC50 (TOV-21G; Homo sapiens, TOV21G, TOV-21G, Ovary, Additional Single Agent Responses (inhibition, % I), 72 h): 5.52
Emax (TOV-21G; Homo sapiens, TOV21G, TOV-21G, Ovary, Additional Single Agent Responses, 72 h, read-out: Max Response (% I)): 7%
Emax (TOV-21G; Homo sapiens, TOV21G, TOV-21G, Ovary, growth inhibition (GI), single agent, 72 h, read-out: Max Response (% GI)): 9%
Best CI (TOV-21G; [19]): 0.37
Bliss Volume (TOV-21G; [19]): 2.49
HSA volume (TOV-21G; [19]): −6.11
Loewe Volume (TOV-21G; [19]): −3.64
Synergy Score (TOV-21G; [19]): 0.49
Response Area (TOV-21G; [20]): −0.01
Response Area (TOV-21G; [21]): −0.01
Best CI (TOV-21G; [22]): 0.45
Best CI Level (TOV-21G; [22]): 20
Bliss Volume (TOV-21G; [22]): 2.55
HSA volume (TOV-21G; [22]): −4.28
Loewe Volume (TOV-21G; [22]): −2.46
Synergy Score (TOV-21G; [22]): 0.33

pEC50 (NCI-H23; [7]): 5.95
pIC50 (NCI-H23; [7]): 5.93
pEC50 (NCI-H23; [24]): 5.75
GI50 (NCI-H23; [24]): 1260 nM
pIC50 (SW48 KRAS (G12D/+); [10]): 6.24
pEC50 (SW48 KRAS (G12D/+); SW48 KRAS (G12D/+), Colorectal, Additional Single Agent Responses (inhibition, % I), 72 h, read-out: EC50): 6.33
GI50 (SW48 KRAS (G12D/+); SW48 KRAS (G12D/+), Colorectal, growth inhibition (GI) curve, single agent, 72 h): 428 nM
pEC50 (SW48 KRAS (G12D/+); SW48 KRAS (G12D/+), Colorectal, growth inhibition (GI) curve, single agent, 72 h, read-out: EC50): 6.27
pEC50 (HCC1171; [15]): 6.17
pIC50 (HCC1171; [15]): 5.52
pEC50 (HCC1171; [16]): 6.17
GI50 (HCC1171; [16]): 734 nM
SMILES: CN1CC[C@@H](c2c(O)cc(O)c3c(=O)cc(-c4ccc(C(F)(F)F)cc4Cl)oc23)[C@@H]1CO [MEI-522(Voruciclib)]
pEC50 (Gp2D; [2]): 6.13
pIC50 (Gp2D; [2]): 6.10
Response Area (Gp2D; [2]): 2.94
Max Response (% I) (Gp2D; Gp2D, Colorectal, Additional Single Agent Responses, 72 h): 94 % I
pEC50 (Gp2D; [23]): 5.93
GI50 (Gp2D; [23]): 695 nM
Response Area (Gp2D; [3]): 5.14
Max Response (% GI) (Gp2D; Gp2D, Colorectal, growth inhibition (GI), single agent, 72 h): 176 % GI
Response Area (NCI-H23; [7]): 2.83
Max Response (% I) (NCI-H23; NCl-H23, Lung, Additional Single Agent Responses, 72 h): 96 % I
Response Area (NCI-H23; [8]): 5.00
Max Response (% GI) (NCI-H23; NCl-H23, Lung, growth inhibition (GI), single agent, 72 h): 181 % GI
Response Area (SW48 KRAS (G12D/+); [10]): 2.81
Max Response (% I) (SW48 KRAS (G12D/+); SW48 KRAS (G12D/+), Colorectal, Additional Single Agent Responses, 72 h): 84 % I
Response Area (SW48 KRAS (G12D/+); [11]): 4.36
Max Response (% GI) (SW48 KRAS (G12D/+); SW48 KRAS (G12D/+), Colorectal, growth inhibition (GI), single agent, 72 h): 139 % GI
Response Area (HCC1171; [15]): 1.62
Max Response (% I) (HCC1171; HCC1171, Lung, Additional Single Agent Responses, 72 h): 51 % I
Response Area (HCC1171; [17]): 2.84
Max Response (% GI) (HCC1171; HCC1171, Lung, growth inhibition (GI), single agent, 72 h): 89 % GI
pEC50 (TOV-21G; [20]): 5.78
pIC50 (TOV-21G; [20]): 5.76
Response Area (TOV-21G; [20]): 2.63
Max Response (% I) (TOV-21G; TOV-21G, Ovary, Additional Single Agent Responses, 72 h): 95 % I
pEC50 (TOV-21G; [25]): 5.70
GI50 (TOV-21G; [25]): 1570 nM
Response Area (TOV-21G; [21]): 4.89
Max Response (% GI) (TOV-21G; TOV-21G, Ovary, growth inhibition (GI), single agent, 72 h): 181 % GI
